According to patent US20070173463A1, “Method and composition for treating otitis media” (priority 2006, published 2007):

Assays:
[1] = prophylactic drops; cited from earlier work
[2] = topical use in the ear; cited from earlier work
[3] = system: ear; conditions: guinea pigs; cited from earlier work
[4] = system: inner ear hearing function; test: Application to the round window membrane with monitoring of compound action potential (CAP); format: in vivo, guinea pigs; conditions: 0.05 to 1.0% applied directly to the round window membrane, more than 50 animals
Excerpt: The inventor conducted animal studies involving application of alpha agonists, including phenylphrine (and other similar agents) directly in the middle ear space of guinea pigs. In these studies, phenylephrine at a concentration of 0.05 to 1.0% was applied directly to the round window membrane of the animal. […] The monitoring of CAP was not specifically reported in published reports, but rather was monitored on a routine basis as a part of the experimental setup. […] See also Isaacson G et al., Oxymetazoline solutions inhibit middle ear pathogens and are not ototoxic.

[5] = topical; cited from earlier work

| Molecule | toxicity for the inner ear (ototoxicity) [2] | effectiveness in treating middle ear infections [5] | further results |
| --- | --- | --- | --- |
| O=C(O)c1cn(C2CC2)c2cc(N3CCNCC3)c(F)cc2c1=O [ciprofloxacin] |  |  | prevention of post-operative ear drainage after tube insertion [1]: effective at preventing post-operative ear drainage after tube insertion |
| CC1COc2c(N3CCN(C)CC3)c(F)cc3c(=O)c(C(=O)O)cn1c23 (stereo not drawn) [ofloxacin] | demonstrated lack of toxicity for the inner ear |  |  |
| Cc1cc(C(C)(C)C)c(O)c(C)c1CC1=NCCN1 [oxymetazoline] |  |  | toxicity to the ear [3]: non-toxic to the ear |
| CNC[C@H](O)c1cccc(O)c1 [phenylephrine] |  |  | compound action potential (CAP), a measure of inner ear hearing function [4]: not found to be adversely affected |
| NC[C@H]1O[C@H](O[C@H]2[C@H](O)[C@@H](O[C@H]3O[C@H](CO)[C@@H](O)[C@H](N)[C@H]3O)[C@H](N)C[C@@H]2N)[C@H](N)C[C@@H]1O [tobramycin] | scattered reports of ototoxicity | effective in treating middle ear infections topically |  |
| Gentamycin | scattered reports of ototoxicity | effective in treating middle ear infections topically |  |
| neomycin |  | effective in treating middle ear infections topically |  |
